Reference: the supplement of paper PMC10627819

Key:
S. pneumoniae D39V [1] = assay: Bliss interaction score (quartile over a dose matrix) (fitness difference); higher = more antagonism (negative = synergy)
How it was run: (§1)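 The Bliss score takes observed fitness and subtracts the expected fitness, calculated as a product of single-drug fitness values. Those single-drug values were inferred from the combination data. Fitness is OD595 at entry into stationary phase divided by the plate's robust no-drug mean, capped at 1, and the score is summarised by quartiles across technical, biological and donor/recipient replicates.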

B. subtilis 168 [2] = assay: as above
How it was run: as §1

S. aureus Newman [3] = assay: as above
How it was run: as §1

S. aureus DSM 20231 [4] = assay: as above
How it was run: as §1

S. pneumoniae D39V [5] = assay: fitness (endpoint OD595 vs no drug) (fraction); higher = more growth
How it was run: (§2)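 At 37 °C, bacteria in TSB, LB Lennox or CY were grown in 384-well plates from a starting OD595 of 0.01. OD595 was measured every 30 min for 14 h, with the first reading used as background. Fitness is the optical density at the switch to stationary phase as a fraction of the robust mean of no-drug control wells, capped at 1.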

B. subtilis 168 [6] = assay: as above
How it was run: as §2

S. aureus Newman [7] = assay: as above
How it was run: as §2

S. aureus DSM 20231 [8] = assay: as above
How it was run: as §2
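Throughout, for Bliss interaction score (quartile over a dose matrix): first quartile when negative (synergy) and third quartile when positive (antagonism).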
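Throughout, for fitness (endpoint OD595 vs no drug): OD595 on entry to stationary phase over no-drug wells; at most 1.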

Cc1ncc([N+](=O)[O-])n1CCO [Metronidazole] + CN1C2=CC=CC=C2N=C3C1=CC=CC3=O [Pyocyanin]
Settings	Bliss interaction score
B. subtilis 168 [2]	-0.0539
S. aureus DSM 20231 [4]	0.0663
S. aureus Newman [3]	0.0796
S. pneumoniae D39V [1]	0.0391

Settings	fitness
B. subtilis 168 [6], first compound 0.625 µg/mL, partner 1.25 µg/mL	0.886
B. subtilis 168 [6], first compound 0.625 µg/mL, partner 2.5 µg/mL	0.867
B. subtilis 168 [6], first compound 0.625 µg/mL, partner 5 µg/mL	0.75
B. subtilis 168 [6], first compound 1.25 µg/mL, partner 1.25 µg/mL	0.884
B. subtilis 168 [6], first compound 1.25 µg/mL, partner 2.5 µg/mL	0.899
B. subtilis 168 [6], first compound 1.25 µg/mL, partner 5 µg/mL	0.743
B. subtilis 168 [6], first compound 2.5 µg/mL, partner 1.25 µg/mL	0.884
B. subtilis 168 [6], first compound 2.5 µg/mL, partner 2.5 µg/mL	0.896
B. subtilis 168 [6], first compound 2.5 µg/mL, partner 5 µg/mL	0.719
S. aureus DSM 20231 [8], first compound 0.625 µg/mL, partner 1.25 µg/mL	0.948
S. aureus DSM 20231 [8], first compound 0.625 µg/mL, partner 2.5 µg/mL	0.916
S. aureus DSM 20231 [8], first compound 0.625 µg/mL, partner 5 µg/mL	0.621
S. aureus DSM 20231 [8], first compound 1.25 µg/mL, partner 1.25 µg/mL	0.996
S. aureus DSM 20231 [8], first compound 1.25 µg/mL, partner 2.5 µg/mL	0.97
S. aureus DSM 20231 [8], first compound 1.25 µg/mL, partner 5 µg/mL	0.645
S. aureus DSM 20231 [8], first compound 2.5 µg/mL, partner 1.25 µg/mL	≥ 1
S. aureus DSM 20231 [8], first compound 2.5 µg/mL, partner 2.5 µg/mL	0.961
S. aureus DSM 20231 [8], first compound 2.5 µg/mL, partner 5 µg/mL	0.686
S. aureus Newman [7], first compound 0.625 µg/mL, partner 1.25 µg/mL	0.881
S. aureus Newman [7], first compound 0.625 µg/mL, partner 2.5 µg/mL	0.831
S. aureus Newman [7], first compound 1.25 µg/mL, partner 1.25 µg/mL	0.905
S. aureus Newman [7], first compound 1.25 µg/mL, partner 2.5 µg/mL	0.834
S. aureus Newman [7], first compound 2.5 µg/mL, partner 2.5 µg/mL	0.802
S. aureus Newman [7], first compound 2.5 µg/mL, partner 5 µg/mL	0.258
S. pneumoniae D39V [5], first compound 1.073 µg/mL, partner 0.325 µg/mL	≥ 1
S. pneumoniae D39V [5], first compound 1.073 µg/mL, partner 0.65 µg/mL	≥ 1
S. pneumoniae D39V [5], first compound 1.073 µg/mL, partner 1.3 µg/mL	0.795
S. pneumoniae D39V [5], first compound 2.145 µg/mL, partner 0.325 µg/mL	0.958
S. pneumoniae D39V [5], first compound 2.145 µg/mL, partner 0.65 µg/mL	0.98
S. pneumoniae D39V [5], first compound 2.145 µg/mL, partner 1.3 µg/mL	0.731
S. pneumoniae D39V [5], first compound 4.29 µg/mL, partner 0.325 µg/mL	0.98
S. pneumoniae D39V [5], first compound 4.29 µg/mL, partner 0.65 µg/mL	0.95
S. pneumoniae D39V [5], first compound 4.29 µg/mL, partner 1.3 µg/mL	0.815

fitness, one replicate
Settings	first compound 0.781 µg/mL	first compound 1.25 µg/mL	first compound 1.562 µg/mL	first compound 2.5 µg/mL	first compound 3.124 µg/mL	first compound 5 µg/mL
S. aureus Newman [7], partner 1.25 µg/mL	0.808	–	0.785	–	0.771	–
S. aureus Newman [7], partner 2.5 µg/mL	0.795	–	0.768	–	0.78	–
S. aureus Newman [7], partner 5 µg/mL	0.376	–	0.425	–	0.418	–
S. pneumoniae D39V [5], partner 0.325 µg/mL	–	≥ 1	–	≥ 1	–	≥ 1
S. pneumoniae D39V [5], partner 0.65 µg/mL	–	≥ 1	–	≥ 1	–	≥ 1

Cc1ncc([N+](=O)[O-])n1CCO [Metronidazole] + Cc1cc(NS(=O)(=O)c2ccc(N)cc2)no1 [Sulfamethoxazol]
Settings	Bliss interaction score
B. subtilis 168 [2]	0.0475
S. aureus DSM 20231 [4]	0.0776
S. aureus Newman [3]	0.0439
S. pneumoniae D39V [1]	-0.0219

fitness
Settings	first compound 0.625 µg/mL	first compound 1.073 µg/mL	first compound 1.25 µg/mL	first compound 2.145 µg/mL	first compound 2.5 µg/mL	first compound 4.29 µg/mL
B. subtilis 168 [6], partner 1 µg/mL	0.876	–	0.951	–	0.948	–
B. subtilis 168 [6], partner 2 µg/mL	0.91	–	0.903	–	0.896	–
B. subtilis 168 [6], partner 4 µg/mL	0.962	–	0.992	–	0.96	–
S. aureus DSM 20231 [8], partner 1 µg/mL	0.982	–	≥ 1	–	≥ 1	–
S. aureus DSM 20231 [8], partner 2 µg/mL	0.983	–	0.986	–	0.988	–
S. aureus DSM 20231 [8], partner 4 µg/mL	0.963	–	0.969	–	0.992	–
S. aureus Newman [7], partner 1 µg/mL	≥ 1	–	0.977	–	0.97	–
S. aureus Newman [7], partner 2 µg/mL	0.94	–	0.978	–	0.95	–
S. aureus Newman [7], partner 4 µg/mL	0.979	–	0.997	–	≥ 1	–
S. pneumoniae D39V [5], partner 1 µg/mL	–	0.935	–	0.792	–	0.912
S. pneumoniae D39V [5], partner 2 µg/mL	–	0.952	–	0.93	–	0.95
S. pneumoniae D39V [5], partner 4 µg/mL	–	0.984	–	0.952	–	0.944

one replicate
Settings	fitness
B. subtilis 168 [6], first compound 0.625 µg/mL, partner 0.5 µg/mL	≥ 1
B. subtilis 168 [6], first compound 1.25 µg/mL, partner 0.5 µg/mL	≥ 1
B. subtilis 168 [6], first compound 2.5 µg/mL, partner 0.5 µg/mL	≥ 1
S. aureus Newman [7], first compound 0.625 µg/mL, partner 8 µg/mL	0.864
S. aureus Newman [7], first compound 0.781 µg/mL, partner 1 µg/mL	≥ 1
S. aureus Newman [7], first compound 0.781 µg/mL, partner 2 µg/mL	≥ 1
S. aureus Newman [7], first compound 0.781 µg/mL, partner 4 µg/mL	≥ 1
S. aureus Newman [7], first compound 1.25 µg/mL, partner 8 µg/mL	0.911
S. aureus Newman [7], first compound 1.562 µg/mL, partner 1 µg/mL	≥ 1
S. aureus Newman [7], first compound 1.562 µg/mL, partner 2 µg/mL	≥ 1
S. aureus Newman [7], first compound 1.562 µg/mL, partner 4 µg/mL	≥ 1
S. aureus Newman [7], first compound 2.5 µg/mL, partner 8 µg/mL	0.898
S. aureus Newman [7], first compound 3.124 µg/mL, partner 1 µg/mL	0.992
S. aureus Newman [7], first compound 3.124 µg/mL, partner 2 µg/mL	0.982
S. aureus Newman [7], first compound 3.124 µg/mL, partner 4 µg/mL	≥ 1
S. pneumoniae D39V [5], first compound 1.25 µg/mL, partner 1 µg/mL	0.979
S. pneumoniae D39V [5], first compound 1.25 µg/mL, partner 2 µg/mL	≥ 1
S. pneumoniae D39V [5], first compound 1.25 µg/mL, partner 4 µg/mL	0.916
S. pneumoniae D39V [5], first compound 2.5 µg/mL, partner 1 µg/mL	≥ 1
S. pneumoniae D39V [5], first compound 2.5 µg/mL, partner 2 µg/mL	≥ 1
S. pneumoniae D39V [5], first compound 2.5 µg/mL, partner 4 µg/mL	0.917
S. pneumoniae D39V [5], first compound 5 µg/mL, partner 1 µg/mL	≥ 1
S. pneumoniae D39V [5], first compound 5 µg/mL, partner 2 µg/mL	≥ 1
S. pneumoniae D39V [5], first compound 5 µg/mL, partner 4 µg/mL	0.9

COc1cccc2c1C(=O)c1c(O)c3c(c(O)c1C2=O)C[C@@](O)(C(=O)CO)C[C@@H]3O[C@H]1C[C@H](N)[C@H](O)[C@H](C)O1 [Doxorubicin] + COc1ccc(C[C@H](N)C(=O)N[C@H]2[C@@H](O)[C@H](n3cnc4c(N(C)C)ncnc43)O[C@@H]2CO)cc1 [Puromycin]
Settings	Bliss interaction score
B. subtilis 168 [2]	-0.059
S. aureus DSM 20231 [4]	-0.0672
S. aureus Newman [3]	-0.0786
S. pneumoniae D39V [1]	0.0661

fitness
Settings	first compound 0.25 µg/mL	first compound 0.5 µg/mL	first compound 0.625 µg/mL	first compound 1 µg/mL	first compound 1.25 µg/mL	first compound 2.5 µg/mL
B. subtilis 168 [6], partner 0.39 µg/mL	–	–	0.918	–	0.879	0.558
B. subtilis 168 [6], partner 0.78 µg/mL	–	–	0.987	–	0.925	0.45
B. subtilis 168 [6], partner 1.56 µg/mL	–	–	0.925	–	0.89	0.336
S. aureus DSM 20231 [8], partner 0.39 µg/mL	–	–	0.912	–	0.869	0.803
S. aureus DSM 20231 [8], partner 0.78 µg/mL	–	–	0.889	–	0.954	0.783
S. aureus DSM 20231 [8], partner 1.56 µg/mL	–	–	0.874	–	0.858	0.733
S. aureus Newman [7], partner 0.39 µg/mL	–	–	0.84	–	0.763	0.699
S. aureus Newman [7], partner 0.78 µg/mL	–	–	0.801	–	0.767	0.68
S. aureus Newman [7], partner 1.56 µg/mL	–	–	0.84	–	0.725	0.678
S. pneumoniae D39V [5], partner 1 µg/mL	0.998	≥ 1	–	0.882	–	–
S. pneumoniae D39V [5], partner 2 µg/mL	0.926	0.914	–	0.874	–	–
S. pneumoniae D39V [5], partner 4 µg/mL	0.54	0.567	–	0.399	–	–

fitness, S. aureus DSM 20231 [8], one replicate
Settings	first compound 0.625 µg/mL	first compound 1.25 µg/mL	first compound 2.5 µg/mL
partner 3.12 µg/mL	0.91	0.821	0.776
partner 6.24 µg/mL	0.801	0.679	0.59
